Patent US8143394B2, “Pyrido(3,2-d)pyrimidines useful for treating viral infections” (Gilead Sciences, Inc., priority 2006, dated 2012)
Read-outs that look alike come from different tables or passages of the source.

Tests used:
HCV replicon = assay: Anti-HCV replicon assay (EC50, luciferase readout); assay type: cell-based; details: Hepatitis C virus
Experimental: (§1) The anti-HCV activity of the pyrido[3,2-d]pyrimidine derivatives of this invention was tested in a human hepatoma Huh-7 cell line harbouring a HCV replicon. The assay comprised the following steps:
(§2) Step 1: Compound Preparation and Serial Dilution
(§3) • 1. for water soluble pyrido[3,2-d]pyrimidine derivatives, a volume of 500 μL of solution in cell media (DMEM, 10% FBS, P/S, L-Glutamine) was prepared with a concentration being twice the concentration of the starting final serial dilution concentration. A volume of 150 μL of the solution was added to the pre-specified wells in column 1 of a 96-well cell culture plate (PerkinElmer, white plate, cat. #6005181, for EC50 assay; black plate, cat. #6005182 for CC50 assay). The rest of the plate, columns 2-12, was filled with 100 μL of cell media. The plate was then placed on a Precision 2000 Workstation to start the serial dilution. Compounds were diluted three times each step from column 1 to column 10. Column 11 was used as a blank control (no compound added). • 2. for pyrido[3,2-d]pyrimidine derivatives requiring DMSO to dissolve, serial dilution is performed in 50% DMSO in a 384-well plate. A solution containing a compound at 100-fold concentration of the starting final serial dilution concentration was prepared in 50% DMSO and added to the pre-specified wells in column 1 of a polypropylene 384-well plate. The plate was then placed on a Precision 2000 Workstation to start the serial dilution. After the serial dilution, a volume of 2 μL of the solution was transferred from the 384-well plate to a 96-well cell culture plate containing 100 μL of cell media on a Biomek FX Workstation. The DMSO concentration in the final assay condition was 0.5% after cells are added to the plate and the total volume in each well is brought to 200 μL. Step 2: to each well of the serial dilution plate prepared above, 100 μL of cell media containing 6000 suspended Huh-7 HCV replicon cells was added with a Multidrop workstation. The plates were incubated for 3 days at 37° C. with 5% CO2. Step 3: Detection: • a) for the EC50 assay, the media in a 96-well cell culture plate was aspirated with a Biotek EL405 plate-washer. A volume of 200 μL of a solution containing a 1:1 mixture of cell-lysis buffer (Promega, Luciferase Cell Culture Lysis 5X Reagent, cat. #E1531) and luciferase substrate solution (Promega, Luciferase Assay, cat. # E4550) was added to each well of the plate with Multidrop. The plate was incubated for 30 minutes at room temperature before the luminescence signal was measured with a TopCount plate-reader. • b) for the CC50 assay, a volume of 100 μL of pre-mixed CellTiter-Glo (Promega, cat. # G7572) solution is added directly to the cell culture in each well of the plate and the luminescence signal is measured with a TopCount plate-reader after 10 minutes of incubation at room temperature.
(§4) Results in table 13 are expressed by the following data: • the 50% effective concentration (EC50), i.e. the concentration that protects 50% of the cell monolayer from virus-induced cythopathic effect, and • the 50% cytostatic concentration (CC50), i.e. the concentration that results in 50% inhibition of cell growth.

[1] = CC50 assay (CellTiter-Glo) in Huh-7 HCV replicon cells; assay type: cell-based, human; details: human, 50% cytostatic concentration
Experimental: as §1, §2, §3, §4

[2] = 72 h, human hepatoma Huh-7 cell line harbouring a HCV replicon, 3 days, luciferase, read-out: EC50

## COCCOc1nc(N)nc2ccc(-c3ccc(C(=O)NC(C)C)cc3)nc12 [Example 75, 4-[2-Amino-4-(2-methoxy-ethoxy)-pyrido[3,2-d]pyrimidin-6-yl]-N-isopropyl-benzamide]
HCV replicon; [2]
  EC50: 300 to 1000 nM
[1]
  CC50 at 3 days: > 20000 nM

## CCOc1nc(N)nc2ccc(-c3ccc(NC(=O)C4(N)CC4)c(F)c3)nc12 [Example 30, 1-Amino-cyclopropanecarboxylic acid [4-(2-amino-4-ethoxy-pyrido[3,2-d]pyrimidin-6-yl)-2-fluoro-phenyl]-amide]
HCV replicon; [2]
  EC50: < 300 nM
[1]
  CC50 at 3 days: > 20000 nM

## COCCNc1nc(N)nc2ccc(-c3ccc(NC(=O)C(C)C)cc3)nc12 [Example 9, N-{4-[2-Amino-4-(2-methoxy-ethylamino)-pyrido[3,2-d]pyrimidin-6-yl]-phenyl}-isobutyramide]
HCV replicon; [2]
  EC50: < 300 nM
[1]
  CC50 at 3 days: 10000 to 20000 nM

## CC(C)(N)C(=O)Nc1ccc(-c2ccc3nc(N)nc(O[C@@H]4CCOC4)c3n2)cc1 [Example 25, 2-Amino-N-{4-[2-amino-4-(tetrahydro-furan-3-yloxy)-pyrido[3,2-d]pyrimidin-6-yl]-phenyl}-2-methyl-propionamide]
HCV replicon; [2]
  EC50: < 300 nM
[1]
  CC50 at 3 days: 10000 to 20000 nM

## CC(C)(N)C(=O)Nc1ccc(-c2ccc3nc(N)nc(O[C@@H]4CCOC4)c3n2)cc1F [Example 23, 2-Amino-N-{4-[2-amino-4-(tetrahydro-furan-3-yloxy)-pyrido[3,2-d]pyrimidin-6-yl]-2-fluoro-phenyl}-2-methyl-propionamide]
HCV replicon; [2]
  EC50: < 300 nM
[1]
  CC50 at 3 days: > 20000 nM

## CCOc1nc(N)nc2ccc(-c3cccc(NS(=O)(=O)C(C)C)c3)nc12 [Example 52, Propane-2-sulfonic acid[3-(2-amino-4-ethoxy-pyrido[3,2-d]pyrimidin-6-yl)-phenyl]-amide]
HCV replicon; [2]
  EC50: < 300 nM
[1]
  CC50 at 3 days: < 10000 nM

## CS(=O)(=O)CCNc1nc(N)nc2ccc(-c3ccc(C(=O)NC4CC4)cc3)nc12 [Example 7, 4-[2-Amino-4-(2-methanesulfonyl-ethylamino)-pyrido[3,2-d]pyrimidin-6-yl]-N-cyclopropyl-benzamide]
HCV replicon; [2]
  EC50: 300 to 1000 nM
[1]
  CC50 at 3 days: > 20000 nM

## CCOc1nc(N)nc2ccc(-c3ccc(NC(=O)[C@H](C)N)c(OC)c3)nc12 [Example 38, 2-Amino-N-[4-(2-amino-4-ethoxy-pyrido[3,2-d]pyrimidin-6-yl)-2-methoxy-phenyl]-propionamide]
HCV replicon; [2]
  EC50: < 300 nM
[1]
  CC50 at 3 days: > 20000 nM

## CCOc1nc(N)nc2ccc(-c3cccc(NS(=O)(=O)c4cnc(NC(C)=O)s4)c3)nc12 [Example 48, N-{5-[3-(2-Amino-4-ethoxy-pyrido[3,2-d]pyrimidin-6-yl)-phenylsulfamoyl]-thiazol-2-yl}-acetamide]
HCV replicon; [2]
  EC50: < 300 nM
[1]
  CC50 at 3 days: > 20000 nM

## Nc1nc(O[C@H]2CCOC2)c2nc(-c3ccc(C(=O)NCCN4CCOCC4)cc3)ccc2n1 [Example 84, 4-[2-Amino-4-(tetrahydro-furan-3-yloxy)-pyrido[3,2-d]pyrimidin-6-yl]-N-(2-morpholin-4-yl-ethyl)-benzamide]
HCV replicon; [2]
  EC50: < 300 nM
[1]
  CC50 at 3 days: > 20000 nM

## CC(C)N1CCC(NC(=O)c2ccc(-c3ccc4nc(N)nc(O[C@H]5CCOC5)c4n3)cc2)CC1 [Example 77, 4-[2-Amino-4-(tetrahydro-furan-3-yloxy)-pyrido[3,2-d]pyrimidin-6-yl]-N-(1-isopropyl-piperidin-4-yl)-benzamide]
HCV replicon; [2]
  EC50: > 1000 nM
[1]
  CC50 at 3 days: > 20000 nM

## Nc1nc(N2CCOCC2)c2nc(-c3ccc(C(=O)NC4CC4)cc3)ccc2n1 [Example 17, 4-(2-amino-4-morpholin-4-yl-pyrido[3,2-d]pyrimidin-6-yl)-N-cyclopropyl-benzamide]
HCV replicon; [2]
  EC50: < 300 nM
[1]
  CC50 at 3 days: < 10000 nM

## CCOc1nc(N)nc2ccc(-c3cccc(NS(=O)(=O)c4cn(C)cn4)c3)nc12 [Example 49, 1-Methyl-1H-imidazole-4-sulfonic acid [3-(2-amino-4-ethoxy-pyrido[3,2-d]pyrimidin-6-yl)-phenyl]-amide]
HCV replicon; [2]
  EC50: 300 to 1000 nM
[1]
  CC50 at 3 days: > 20000 nM

## CCOc1nc(N)nc2ccc(-c3ccc(NC(=O)OC)cc3)nc12 [Example 44, [4-(2-Amino-4-ethoxy-pyrido[3,2-d]pyrimidin-6-yl)-phenyl]-carbamic acid methyl ester]
HCV replicon; Huh-7, 72 h
  EC50: 300 to 1000 nM
[1]
  CC50 at 3 days: > 20000 nM

## CCOc1nc(N)nc2ccc(-c3cccc(NS(=O)(=O)C4CC4)c3)nc12 [Example 53, Cyclopropanesulfonic acid[3-(2-amino-4-ethoxy-pyrido[3,2-d]pyrimidin-6-yl)-phenyl]-amide]
HCV replicon; [2]
  EC50: < 300 nM
[1]
  CC50 at 3 days: > 20000 nM

## CCCCNC(=O)c1ccc(-c2ccc3nc(N)nc(OC(C)C)c3n2)cc1 [Example 66, 4-(2-Amino-4-isopropoxy-pyrido[3,2-d]pyrimidin-6-yl)-N-n-butyl-benzamide]
HCV replicon; [2]
  EC50: 300 to 1000 nM
[1]
  CC50 at 3 days: > 20000 nM

## CC(C)C(=O)Nc1ccc(-c2ccc3nc(N)nc(O[C@H]4CCOC4)c3n2)cc1 [Example 27, N-{4-[2-Amino-4-(tetrahydro-furan-3-yloxy)-pyrido[3,2-d]pyrimidin-6-yl]-phenyl}-isobutyramide]
HCV replicon; [2]
  EC50: < 300 nM
[1]
  CC50 at 3 days: > 20000 nM

## CCOc1nc(N)nc2ccc(-c3ccc(C(=O)NOC)cc3)nc12 [Example 60, 4-(2-Amino-4-ethoxy-pyrido[3,2-d]pyrimidin-6-yl)-N-methoxy-benzamide]
HCV replicon; [2]
  EC50: > 1000 nM
[1]
  CC50 at 3 days: > 20000 nM

## CCC(=O)Nc1ccc(-c2ccc3nc(N)nc(NCCOC)c3n2)cc1 [Example 8, N-{4-[2-Amino-4-(2-methoxy-ethylamino)-pyrido[3,2-d]pyrimidin-6-yl]-phenyl}-propionamide]
HCV replicon; [2]
  EC50: < 300 nM
[1]
  CC50 at 3 days: > 20000 nM

## CCOc1nc(N)nc2ccc(-c3ccc(NC(=O)[C@H](C)N)cc3)nc12 [Example 42, 2-Amino-N-[4-(2-amino-4-ethoxy-pyrido[3,2-d]pyrimidin-6-yl)-phenyl]-propionamide]
HCV replicon; [2]
  EC50: < 300 nM
[1]
  CC50 at 3 days: > 20000 nM

## Nc1nc(O[C@H]2CCOC2)c2nc(-c3ccc(C(=O)NCC(F)(F)F)cc3)ccc2n1 [Example 82, 4-[2-Amino-4-(tetrahydro-furan-3-yloxy)-pyrido[3,2-d]pyrimidin-6-yl]-N-(2,2,2-trifluoro-ethyl)-benzamide]
HCV replicon; [2]
  EC50: < 300 nM
[1]
  CC50 at 3 days: 10000 to 20000 nM

## CCOc1nc(N)nc2ccc(-c3ccc(C(=O)NC(C)(C)C)cc3)nc12 [Example 58, 4-(2-Amino-4-ethoxy-pyrido[3,2-d]pyrimidin-6-yl)-N-tert-butyl-benzamide]
HCV replicon; [2]
  EC50: > 1000 nM
[1]
  CC50 at 3 days: > 20000 nM

## CCOc1nc(N)nc2ccc(-c3ccc(C(=O)NC(C)C)cc3)nc12 [Example 61, 4-(2-Amino-4-ethoxy-pyrido[3,2-d]pyrimidin-6-yl)-N-isopropyl-benzamide]
HCV replicon; [2]
  EC50: 300 to 1000 nM
[1]
  CC50 at 3 days: > 20000 nM

## CCOc1nc(N)nc2ccc(-c3cccc(NS(=O)(=O)C4CCS(=O)(=O)C4)c3)nc12 (centres unmarked) [Example 51, 1,1-Dioxo-tetrahydro-1?^6-thiophene-3-sulfonic acid [3-(2-amino-4-ethoxy-pyrido[3,2-d]pyrimidin-6-yl)-phenyl]-amide]
HCV replicon; [2]
  EC50: < 300 nM
[1]
  CC50 at 3 days: > 20000 nM

## CC(C)Oc1nc(N)nc2ccc(-c3ccc(C(=O)NC4CC4)cc3)nc12 [Example 73, 4-(2-Amino-4-isopropoxy-pyrido[3,2-d]pyrimidin-6-yl)-N-cyclopropyl-benzamide]
HCV replicon; [2]
  EC50: < 300 nM
[1]
  CC50 at 3 days: > 20000 nM
